The source of these data is patent publication US20260207760A1, “COMBINATIONS OF CD33 ANTIBODY DRUG CONJUGATE WITH CHEMOTHERAPEUTIC AGENTS” (Glykos Biomedical Oy, priority 2022, published 2026).

“And” between values parts separate entries of the source, which are not always exact repeats. Equal entries are not always repeated. Structures can show the parent of a compound that is named as a salt. Where two headings read alike, the source gives them in different places.

For data set [1], the system named is MOLM-13 cells. As to the kind of experiment: MOLM-13 cell mouse xenograft efficacy study. Conditions: for toxicity in mice: clinical signs, general behavior, macroscopic changes in major organs; for Average tumor size / Tumor size of individual mice / TGI (average tumor size compared to Vehicle): day 15 after tumor inoculation, combination of the two; for Average tumor size / Tumor size of individual mice: LNAuM 0.3 mg/kg single dose i.v., venetoclax 100 mg/kg p.o. daily; for TGI (average tumor size compared to Vehicle): LNAuM 0.3 mg/kg single dose.

The test system of data set [2] is patient lymphocytes. As to the kind of experiment: Ex vivo AML patient samples, viable lymphocytes by flow cytometry, 5-day assay. Conditions: CD33-negative lymphocytes in AML patient samples, five days. The protocol:
(§1) AML cells were rapidly thawed in a 37° C. water bath and treated with Denarase (250 U/μl). The cells were cultured in SFEM II medium ([…] Technologies) supplemented with 20 ng/ml SCF, 20 ng/ml TPO, and 20 ng/ml FLT3-L. The compounds were added the same day to 96-well conical bottom plates at seven different concentrations using an acoustic liquid handling device (Echo 550, Labcyte Inc), on top of 10 μl of culturing medium/well. A total of 100,000 cells were seeded per well in a volume of 100 μl. […] All antibodies were obtained from BD biosciences and used at a dilution of 1:100, except CD3 in 1:50. Following a 20-minute incubation with the antibodies, the cells were centrifuged, and 25 μl of Annexin-V and 7-AAD mixture, both diluted 1:50 in Annexin V binding buffer, were added to each well. After a 10-minute incubation, the total number of viable blasts (CD34 or CD117), lymphocytes (CD3) and CD33-positive cells in each well was counted using Forecyte software (Sartorius) and normalized to DMSO control containing wells.
(§2) The AML samples were exposed to LNAuM, lintuzumab, MMAU, or gemtuzumab ozogamicin (GO; Mylotarg, Pfizer) for five days, after which remaining viable blast and lymphocytes were quantified using flow cytometry. […] Subsequently, we assessed toxicity against lymphocytes (CD33-negative) in the same samples.

For data set [3], the system named is patient blasts. Description: Ex vivo AML patient samples, viable blasts by flow cytometry, 5-day assay. Format: cell-based, human. Conditions: five days; for IC50: six AML patient samples, read-out: median IC50 (absolute) against blasts; for activity against blasts: AML patient samples. The protocol: as §1, §2
Data set [4] has as its system HL-60 cells. Description: Toxicity assay of chemotherapeutic agents, HL-60 cells (PrestoBlue viability). Format: cell-based, human. The protocol: HL-60 cells (ATCC®, cat. no. CCL-240™), derived from human promyelocytic leukemia, were cultured in Iscove's Modified Dulbecco's Medium (Gibco, Life Technologies) supplemented with 20% heat inactivated FBS (Gibco, Life Technologies).
For toxicity assay, HL-60 cells were seeded for 7500 cells/well of 96-well plate. The chemotherapeutic agents were added as 2-fold stock solutions and incubated with cells for 5 days.
All other compounds were tested at concentrations 0.1, 1, 10, 100, 1000, and 10 000 nM. […] The percentage of viable cells was calculated by dividing the sample absorbance value with untreated cell control value and multiplying by 100%.
All compounds were tested at concentrations of 0.1-10 000 nM.
IC50 values were determined after average % and standard deviations were transferred to GraphPad Prism 9.1.2. Dose-response curves were generated and the IC50% values of the samples were obtained by non-linear regression analysis (Inhibitor vs. response, variable slope (four parameters)) using the software.

The subject of data set [5] is KG-1 cells. Description: Toxicity of chemotherapeutic agents, KG-1 cells (PrestoBlue viability). Conditions: 4 days. Type of data set: cell-based. The protocol: Toxicity of chemotherapeutic agents was tested with high CD33-positive KG-1 cell line (DSMZ-German Collection of Microorganisms and Cell Cultures; Cat. No. ACC 14). KG-1 cells were seeded to non-treated 96-well plate 15000 cells/well and diluted compounds were added to cells in duplicates. Dilution series (1:10) of compounds were prepared starting from 20 μM to 0.2 nM and when added to cells they diluted 2× more. Cell control was untreated cells in culture medium.
Cells with chemotherapeutic agents were cultured for 4 days and then the viability was measured with PrestoBlue cell viability reagent according to the manufacturer's (Life Technologies) instructions. Results were calculated from 5-hour Prestoblue reaction and the percentage of viable cells was calculated by dividing the sample absorbance value with cell control value.

For data set [6], the system named is MOLM-13 cells. Description: Toxicity assay of chemotherapeutic agents, MOLM-13 cells (PrestoBlue viability). The conditions noted are these: 4 days. Type of data set: cell-based, human. The protocol: For toxicity assay, MOLM-13 cells were seeded for 10 000 cells/well of 96-well plate. The tested chemotherapeutic agents were added as 2-fold stock solutions and incubated in duplicate with cells for 4 days. The compounds were tested at concentrations 0.1, 1, 10, 100, 1000, and 10 000 nM. […] After 4 days incubation, the viability of the cells was determined with PrestoBlue Cell Viability Reagent (Life Technologies) according to the manufacturer's instructions. The percentage of viable cells was calculated by dividing the sample absorbance value with untreated cell control value and multiplying by 100%.

Setting [7] is: Homo sapiens, 120 h, HL-60 cells, 5 days incubation, read-out: IC50.

Regarding “LNAuM: antibody-drug-conjugate (ADC) comprising the lintuzumab antibody, conjugated to MMAU, via a cleavable linker”, the “tumors disappeared and did not regrow during the whole study” value in data set [1] (LNAuM single dose of 3 mg/kg) was 6/6. Moreover, the “tumor growth versus control group” value in data set [1] (all doses (LNAuM 0.1-3 mg/kg single dose; venetoclax 100 mg/kg, 10 daily doses)) was “inhibited tumor growth”. Moreover, in data set [1], the toxicity in mice result was “no toxicity”; the Average tumor size amounted to 201 mm^3; the “Tumor size of individual mice” value was 204.723 mm^3 and 229.992 mm^3 and 239.704 mm^3 and 153.6 mm^3 and 106.624 mm^3 and 271.472 mm^3. The “TGI (average tumor size compared to Vehicle)” value in data set [1] (venetoclax 100 mg/kg) is 0.46. In data set [1] (day 54 after tumor inoculation, venetoclax 100 mg/kg, LNAuM 1 mg/kg, combination), the “outcome at study end” value was “two animals were sacrificed due to tumor growth, and in the rest of the animals there was a palpable tumor”. Moreover, the “cytotoxic activity against lymphocytes” value in data set [2] is on record as “did not exhibit cytotoxic activity”. The IC50 in data set [3] came out at 16 nM.

In the case of `COc1cccc2c1C(=O)c1c(O)c3c(c(O)c1C2=O)C[C@@](O)(C(C)=O)C[C@@H]3O[C@H]1C[C@H](N)[C@H](O)[C@H](C)O1` [Daunorubicin-HCl], the 50% inhibitory concentration (IC50) amounted to 15 nM in data set [4] (Homo sapiens, HL-60, 120 h); 55 nM in data set [5] (Homo sapiens, 96 h); 13 nM in data set [6] (Homo sapiens, 96 h).

`CCC(C)C(C(CC(=O)N1CCCC1C(OC)C(C)C(=O)NC(C)C(OC1OC(C(=O)O)C(O)C(O)C1O)c1ccccc1)OC)N(C)C(=O)C(NC(=O)C(NC)C(C)C)C(C)C` [MMAU, monomethylauristatin E β-D-glucuronide]: the “cytotoxic activity against lymphocytes” value in data set [2] is “did not exhibit cytotoxic activity”. The activity against blasts result in data set [3] is on record as “modest or no activity”.

Take “lintuzumab: anti-CD33 antibody comprising the light chain of SEQ ID NO:1 and the heavy chain of SEQ ID NO:2”: the tumor growth inhibition result in data set [1] (lintuzumab naked antibody 10 mg/kg single dose, non-binding IgG1 ADC control 3 mg/kg single dose) is “only modest tumor growth inhibition”. In addition, the “cytotoxic activity against lymphocytes” value in data set [2] is “did not exhibit cytotoxic activity”. Moreover, the activity against blasts result in data set [3] was “modest or no activity”.

In data set [6] (Homo sapiens, 96 h), `CO[C@@H]1[C@H](N(C)C(=O)c2ccccc2)C[C@H]2O[C@]1(C)n1c3ccccc3c3c4c(c5c6ccccc6n2c5c31)C(=O)NC4` [Midostaurin] registered an IC50 of 14 nM.

For gemtuzumab ozogamicin [GO], the “cytotoxic activity against lymphocytes” value in data set [2] is “significant lymphocyte toxicity”. In addition, the half-maximal inhibitory concentration (IC50) in data set [2] (read-out: median IC50 against lymphocytes) stood at 9 nM; in data set [3], 0.3 nM.

For `CC1(C)CCC(CN2CCN(c3ccc(C(=O)NS(=O)(=O)c4ccc(NCC5CCOCC5)c([N+](=O)[O-])c4)c(Oc4cnc5[nH]ccc5c4)c3)CC2)=C(c2ccc(Cl)cc2)C1` [Venetoclax], in data set [1], the toxicity in mice result is reported as “no toxicity”; the Average tumor size was determined as 194 mm^3; the “Tumor size of individual mice” value was 134.946 mm^3 and 184.96 mm^3 and 249.64 mm^3 and 246.895 mm^3 and 122.793 mm^3 and 226.1475 mm^3. The “TGI (average tumor size compared to Vehicle)” value in data set [1] (venetoclax 100 mg/kg) was 0.45. Besides, in data set [4] (setting [7]), the half-inhibitory concentration (IC50) was determined as 112 nM. The same compound returned an IC50 in data set [5] (Homo sapiens, 96 h) of 2300 nM. The same compound had a 50% inhibitory concentration (IC50) in data set [6] (Homo sapiens, 96 h) of 24 nM.

Consider Gilteritinib hemifumarate, for which the IC50 in data set [4] (read-out: IC50) was determined as 425 nM; in data set [5] it was 1700 nM; in data set [6] it was 24 nM.

As for `Nc1ccn([C@@H]2O[C@H](CO)[C@@H](O)[C@@H]2O)c(=O)n1` [Cytarabine], the half-inhibitory concentration (IC50) in data set [4] (setting [7]) is 298 nM; in data set [5] (Homo sapiens, 96 h), 230 nM; in data set [6] (Homo sapiens, 96 h), 112 nM.
